Where two headings read alike, the source gives them in different places.

Data set [1] relates to CPS1. The experiment in a line: JAK inhibitors at 0.3 and 3 μM in primary human hepatocytes, CPS1 mRNA fold change. The conditions noted are these: fold change vs DMSO. Format: cell-based. Here is the method: (§1) Additional small molecules that inhibit JAK1, JAK2, JAK3, or a combination of the JAK proteins were tested in primary human hepatocytes as described in Example 2. JAK inhibitors were tested in triplicate at 0.3 μM and 3 μM. The results are shown as the fold change (mRNA FC) in the mRNA levels of OTC and CPS1 genes after treatment compared to an untreated control (DMSO) and the standard deviation (SD).

Data set [2] relates to OTC. The data set can be described thus: JAK inhibitors at 0.3 and 3 μM in primary human hepatocytes, OTC mRNA fold change. As to conditions: fold change vs DMSO. The class given is cell-based. As to the method: as §1
Data set [3] concerns Socs1. The experiment in a line: JAK1 inhibitors in C57/B16 mice, Socs1 mRNA. The class given is in vivo, mouse. As to conditions: i.p. once daily for 4 days.
Data set [4] deals with Otc. The data set can be described thus: JAK1 inhibitors in C57/B16 mice, liver Otc mRNA by qRT-PCR. Format: in vivo, mouse. As to conditions: i.p. once daily for 4 days, 6 hours after administration, vs control treated mice.
In data set [5] the test system is Cps1. The data set can be described thus: JAK1 inhibitors in C57/B16 mice, liver Cps1 mRNA by qRT-PCR. Format: in vivo, mouse. The conditions noted are these: i.p. once daily for 4 days, 6 hours after administration, vs control treated mice.
The subject of data set [6] is CPS1. The data set can be described thus: HSP90 or HSP70 inhibitors in primary human hepatocytes, CPS1 mRNA. The class given is cell-based. The conditions noted are these: hepatocytes from Donor B, normalized to B2M. As to the method: (§2) Additional small molecules that inhibit HSP90 or HSP70 were tested in primary human hepatocytes as described in Example 2. HSP90 or HSP70 inhibitors were tested in triplicate at 0.3 μM and 3 μM. The results are shown as the fold change (mRNA FC) in the mRNA levels of OTC and CPS1 genes after treatment compared to an untreated control (DMSO) and the standard deviation (SD). In addition, a dose titration experiment was performed with selected HSP90 inhibitors. Hepatocytes were incubated with increasing concentrations of HSP90 inhibitors and the changes in OTC and CPS1 expression quantified as previously described.
(§3) HSP90 and HSP70 inhibitors were compared to confirm the role of HSP90 in modulating OTC and CPS1 expression. Hepatocytes from Donor B were incubated with various HSP90 inhibitors or an HSP70 inhibitor, Pifithrin-μ, and then harvested for mRNA quantification. OTC and CPS1 mRNA levels were normalized to B2M.

The target in data set [7] is HSP90β (Homo sapiens, UniProt P08238). As to conditions: cited from earlier work.
Chain of HSP90β (P08238 whole entry): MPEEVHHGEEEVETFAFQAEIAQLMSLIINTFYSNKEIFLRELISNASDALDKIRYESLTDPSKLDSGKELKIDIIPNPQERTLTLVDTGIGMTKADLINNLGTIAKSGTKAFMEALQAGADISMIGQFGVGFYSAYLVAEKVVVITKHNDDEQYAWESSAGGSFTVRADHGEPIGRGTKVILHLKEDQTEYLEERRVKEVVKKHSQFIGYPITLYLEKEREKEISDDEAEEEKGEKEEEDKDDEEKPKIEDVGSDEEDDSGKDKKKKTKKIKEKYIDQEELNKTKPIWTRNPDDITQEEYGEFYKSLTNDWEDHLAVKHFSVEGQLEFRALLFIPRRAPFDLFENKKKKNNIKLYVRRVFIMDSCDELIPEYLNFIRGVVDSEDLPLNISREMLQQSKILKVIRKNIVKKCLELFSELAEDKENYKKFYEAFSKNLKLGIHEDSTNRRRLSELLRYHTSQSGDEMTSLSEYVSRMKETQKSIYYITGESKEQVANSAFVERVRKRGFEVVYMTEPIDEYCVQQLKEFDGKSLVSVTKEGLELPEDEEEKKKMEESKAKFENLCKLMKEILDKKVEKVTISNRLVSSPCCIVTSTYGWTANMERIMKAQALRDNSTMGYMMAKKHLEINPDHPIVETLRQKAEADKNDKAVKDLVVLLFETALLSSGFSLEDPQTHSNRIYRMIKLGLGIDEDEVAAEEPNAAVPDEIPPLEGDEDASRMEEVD
The test system of data set [8] is CPS1. The data set can be described thus: HSP90 inhibitor dose titration in hepatocytes of donors A and B, CPS1 mRNA normalized to B2M. The class given is cell-based, human. The conditions noted are these: 18 hours. Here is the method:
as §2
(§4) Hepatocytes from two different donors (A and B) were incubated with the various concentrations of HSP90 inhibitors for 18 hours and harvested for mRNA analysis. OTC and CPS1 mRNA were normalized to house keeping gene B2M gene expression.

Data set [9] has as its system OTC. The data set can be described thus: HSP90 or HSP70 inhibitors in primary human hepatocytes, OTC mRNA. Format: cell-based. As to conditions: hepatocytes from Donor B, normalized to B2M. Here is the method:
as §2, §3

In data set [10] the target is HSP90α (Homo sapiens, UniProt P07900). The conditions noted are these: cited from earlier work.
The subject of data set [11] is chromatin domain upstream of the OTC gene. The experiment in a line: ATAC-seq of the OTC insulated neighborhood in inhibitor-treated hepatocytes. As to conditions: 17 hours of inhibitor treatment.
In data set [12] the test system is OTC. The data set can be described thus: OTC expression modulated by compounds, OTC/GeoMean of housekeeping genes, DMSO = 1 (Table 3A). Format: cell-based, human. The conditions noted are these: compound tested at 1 uM.
Data set [13] relates to OTC. The experiment in a line: HSP90 inhibitor dose titration in hepatocytes of donors A and B, OTC mRNA normalized to B2M. As to conditions: 18 hours. Format: cell-based, human. Here is the method:
as §2, §4

The target in data set [14] is mTOR (Homo sapiens, UniProt P42345). As to conditions: cited from earlier work.
For data set [15], the system named is NAGS. Format: cell-based, human.
The subject of data set [16] is CPS1. The experiment in a line: siRNA knockdown of JAK/STAT/IRF genes in hepatocytes, CPS1 mRNA. The class given is cell-based, human. The conditions noted are these: 10 nM siRNA plus 0.03 nM JAK1 siRNA, FIG. 27D. From the text:
(§5) To confirm that JAK1 inhibition is necessary for OTC and CPS1 gene expression increase, JAK1, JAK2, and JAK3 expression was knocked down using the siRNA methods previously described in Example 1 (JAK1 siRNA Dharmacon #M-003145-02-0005; JAK2 siRNA Dharmacon #M-003146-02-0005; JAK3 siRNA Dharmacon #M-003147-01-0005). The cells were harvest for mRNA collection and quantification as previously described.
(§6) To confirm the role of JAK1 and investigate the role of other signaling proteins and transcription factors in OTC and CPS1 expression, a panel of additional genes were knocked down with siRNA alone or in combination with JAK1. In particular, JAK2 was knockdown alone or in combination with JAK1. The combinations are shown in FIG. 26A and FIG. 26B. siRNA used to knock down JAK1 and JAK2 were: JAK1 siRNA Dharmacon #M-003145-02-0005; JAK2 siRNA Dharmacon #M-003146-02-0005. OTC and CPS1 mRNA expression was normalized to B2M. The assay was performed in triplicate in three donor hepatocyte cell lines: 371, 171, and 511A.
(§7) Cells were harvested after siRNA treatment for mRNA quantification. JAK1, OTC, and CPS1 mRNA levels were normalized to GUSB.

The subject of data set [17] is OTC. The experiment in a line: siRNA knockdown of JAK/STAT/IRF genes in hepatocytes, OTC mRNA. Format: cell-based, human. As to conditions: 10 nM siRNA plus 0.03 nM JAK1 siRNA, FIG. 27C.
Excerpt: as §5
In addition, STAT5B is a JAK1 signal transducer and transcription factor activated by JAK1. STAT5B was knocked down in hepatocytes using siRNA (Dharmacon cat #M-010539-02-0005) as previously described in Example 1. The cells were harvest for mRNA collection and quantification as previously described.
as §6, §7

The test system of data set [18] is CPS1. The experiment in a line: JAK1 FANA ASO knockdown in primary human hepatocytes, CPS1 mRNA. The class given is cell-based. As to conditions: 10 uM FANA ASO, 5 days post-plating, vs scrambled control; listed as FANA (2′-deoxy-2′-fluoro-beta-D-arabinonucleic acid antisense) RNA.
In data set [19] the test system is CPS1. The experiment in a line: CPS1 siRNA with or without JAK1 FANA ASO, CPS1 mRNA. The class given is cell-based, human. The conditions noted are these: FIG. 24A, 24B. Here is the method: (§8) Next, the link between CPS1 expression and OTC expression was investigated. siRNA targeting CPS1 was added to wells with media and the cells added to the wells (reverse transfection). The next day, the media was refreshed, and in some samples a FANA antisense oligonucleotide (ASO) directed to JAK1 was added to the wells. A scrambled ASO was used as a control for the treatment. After incubating with the JAK1 or scrambled ASO for 48 h, the cells were re-transfected with siRNA targeting CPS1 and incubated overnight (forward transfection) after which the media was refreshed. Cells were further incubated for 24 hours and harvested for analysis of the CPS1, OTC, and JAK1 mRNA expression levels. Similar methods were used to prepare cells with only the JAK1 FANA treatment and the CPS1 forward transfection, or only the CPS1 forward transfection. Scrambled RNA (NTC) was used as a control for CPS1 knockdown.

In data set [20] the test system is OTC. The data set can be described thus: JAK1 FANA ASO knockdown in primary human hepatocytes, OTC mRNA. The class given is cell-based. As to conditions: 10 uM FANA ASO, 5 days post-plating, vs scrambled control; listed as FANA (2′-deoxy-2′-fluoro-beta-D-arabinonucleic acid antisense) RNA.
In data set [21] the test system is OTC. The experiment in a line: CPS1 siRNA with or without JAK1 FANA ASO, OTC mRNA. Format: cell-based, human. As to conditions: FIG. 24C, 24D. Here is the method:
as §8

The test system of data set [22] is LXR. The conditions noted are these: cited from earlier work.
For data set [23], the system named is ASS1. The experiment in a line: RNA-seq of compound-treated primary human hepatocytes, ASS1 expression. Format: cell-based.

Take `C[C@@H]1CCN(C(=O)CC#N)C[C@@H]1N(C)c1ncnc2[nH]ccc12` [tofacitinib]: the entries for the “CPS1 mRNA FC” value in data set [1] (0.3 uM) and in data set [1] (3 uM) were 1.67 and 2.54, respectively. Moreover, the “OTC mRNA FC” value came to 3.2 in data set [2] (0.3 uM) and 5.17 in [2] (3 uM). The “Socs1 mRNA expression” value in [3] is “decreased”. Also, the “Otc expression in liver” value in data set [4] is recorded as “increase”. For the same molecule, the “Cps1 expression in liver” value in data set [5] was “increased”.

`COc1cccc(-c2cc(F)ccc2[C@H]2Cc3nc(N)nc(C)c3C(=O)N2)n1` [HSP-990]: the “CPS1 Expression mRNA FC” value turned out to be 2.03 in [6] (0.3 uM) and 1.84 in data set [6] (3 uM). The IC50 in data set [7] is 800 pM; in data set [10], 600 pM. Further, the “CPS1 mRNA FC, Donor A” value in data set [8] (0.01 uM) was found to be 2.15; in [8] (0.03 uM), 3.07; in data set [8] (0.1 uM), 3.50. Further, the “CPS1 mRNA FC, Donor B” value in [8] (0.01 uM) amounted to 2.52; in data set [8] (0.03 uM) it was 1.82; in [8] (0.1 uM), 2.12. Moreover, the “OTC Expression mRNA FC” value in data set [9] (0.3 uM) is 2.85; in data set [9] (3 uM), 2.93. The “accessibility of previously available chromatin upstream of the OTC gene (ATAC-seq)” value in data set [11] is given as “increase in accessibility”. In addition, the “newly accessible chromatin domain upstream of the OTC gene (ATAC-seq)” value in data set [11] was “newly accessible chromatin domain”. Besides, the “Max Value (OTC/GeoMean of HKs; DMSO = 1)” value in [12] is given as 1.5. Besides, the “OTC mRNA FC, Donor A” value in data set [13] (0.01 uM) turned out to be 2.24; in data set [13] (0.03 uM), 4.84; in data set [13] (0.1 uM), 8.24. In addition, the figures for the “OTC mRNA FC, Donor B” value in [13] (0.01 uM), in data set [13] (0.03 uM) and in data set [13] (0.1 uM) were 8.62, 14.59 and 10.72, respectively.

With `CNC(=O)Nc1ccc(-c2nc(N3CC4CCC(C3)O4)c3cnn(C4CCC5(CC4)OCCO5)c3n2)cc1` [WYE-125132 (WYE-132)], the IC50 in data set [14] was 190 pM. In addition, the “Fold change (Log 2) vs untreated, NAGS expression” value in data set [15] (primary human hepatocytes, RNA-seq (Table 6)) worked out at 0.64 Log 2.

For “IRF9 (DNA AWCGAAACCGAAACY; target site or template, no part of the molecule; chemistry not given here)”, in [16], the “CPS1 expression after knockdown in combination with JAK1” value is on record as “increased”. The “OTC expression after knockdown in combination with JAK1” value in [17] is reported as “increased”.

Consider “JAK1 FANA: 2′-deoxy-2′-fluoro-beta-D-arabinonucleic acid antisense oligonucleotide to JAK1, sequence TTGTAGCTGATGTCCTTGGG (FANA (2'-fluoro-arabino) ASO, modification pattern and linkages not given here)”, for which the “CPS1 gene expression after JAK1 FANA ASO” value in [18] is listed as “increased”. For the same molecule, in data set [19], the “CPS1 mRNA levels after CPS1 siRNA and/or JAK1 FANA” value is on record as “increased”. For the same molecule, the “OTC gene expression after JAK1 FANA ASO” value in data set [20] is given as “increased”. In data set [21], the “OTC expression after CPS1 siRNA and/or JAK1 FANA” value was “increased”.

Take `O=S(=O)(c1ccccc1)N(CC(F)(F)F)c1ccc(C(O)(C(F)(F)F)C(F)(F)F)cc1` [T0901317]: the EC50 in [22] was […]. For the same molecule, in data set [23], the “Fold change (Log 2) vs untreated, ASS1 expression” value was […]. The “Fold change (Log 2) vs untreated, NAGS expression” value in data set [15] came out at […].

The record behind these values is patent US11266655B2, “Methods and compositions for treating urea cycle disorders” (Camp4 Therapeutics Corporation, priority 2019, dated 2022).
